Laboratory results taken from patent US20220323383A1, “SMALL-MOLECULAR ADJUVANTS AND IMPLEMENTATIONS THEREOF” (JAWAHARLAL NEHRU CENTRE FOR ADVANCED SCIENTIFIC RESEARCH, priority 2019, published 2022).
“And” between values parts separate entries of the source, which are not always exact repeats. Equal entries are not always repeated. Where two headings read alike, the source gives them in different places.

Key:
Assay type in all cases: cell-based
human RBCs = assay: Haemolytic activity; settings: concentration at which 50% of human blood cells are lysed; 1 h at 37° C.
Protocol: Erythrocytes were isolated from freshly drawn, heparanized human blood and re-suspended to 5 vol % in PBS (pH 7.4). In a 96-well microtiter plate, 150 μl of erythrocyte suspension was added to 50 μl of serially diluted compound. Two controls were made, one without compound and other with 50 μl of 1 vol % solution of Triton X-100. The plate was incubated for 1 h at 37° C. The plate was then centrifuged at 3,500 rpm for 5 min, 100 μl of the supernatant from each well was transferred to a fresh 96-well microtiter plate, and A540 was measured. Percentage of hemolysis was determined as (A−A0)/(Atotal−A0)×100, where A is the absorbance of the test well, A0 the absorbance of the negative controls (without compound), and Atotal the absorbance of 100% hemolysis wells (with Triton X-100), all at 540 nm.
Toxicity studies of the compounds were done on freshly drawn human RBCs. Toxicity of the compounds were defined by their HC50 values (Table 2), i.e. the concentration of compound at which 50% of the blood cells are lysed.

P. aeruginosa R590 [1] = assay: Individual antibacterial activity (MIC) of adjuvants; settings: adjuvant alone; P. aeruginosa R590
Protocol: (§1) The combination efficacy with antibiotics from different classes and individual antibacterial activity of the synthesized adjuvants was evaluated against the above mentioned MDR and NDM-1 strains of Gram-negative bacteria. All the bacteria were grown in peptone. The bacterial samples were freeze dried and stored at −80° C. 3 μl of these stocks were added to 3 mL of peptone and the culture was grown for 6 h at 37° C. prior to the experiments.
(§2) All synthesized compounds were assayed for their antibacterial activity in combination with antibiotics in a modified chequerboard micro-dilution broth format. Stock solutions were made by serially diluting the compounds using autoclaved millipore water. The bacterial freeze dried stock samples were stored at −80° C. About 3 μL of these stocks were added to about 3 mL of the respective broth and the culture was grown for about 6 h at about 37° C. with prior to the experiments. This 6 h grown culture gives about 10^8 cfu/mL in case of A. baumannii R674, P. aeruginosa R590, E. coli R3336 and K. pneumoniae R3934 which were determined by spread plating method. This 6 h grown culture was diluted to give effective cell concentration of 10^5 cfu/mL, and then used for the chequerboard assay. Adjuvants and antibiotics were serially diluted in two-fold, in sterile millipore water. 25 μL of these serial dilutions of the antibiotics and 25 μL of compounds were added to the wells of 96 well plate followed by the addition of about 150 μL of bacterial solution (˜10^5 cfu/mL). The plates were then incubated at about 37° C., 150 rpm in the incubator and O.D at 600 nm was recorded at 24 h using TECAN (Infinite series, M200 pro) Plate Reader. The wells with similar OD as the media control contained the required concentration of the antibiotic and adjuvant for antibacterial efficacy. The potentiation ability of the adjuvants was determined by calculating the potentiation factor and the Fractional Inhibitory concentration (FIC) index. Fractional Inhibitory Concentration (FIC) is expressed as, FIC=[X]/MICX, where [X] is the lowest inhibitory concentration of antibiotic in the presence of the adjuvant. Whereas FIC index is expressed as, FICI=FICantibiotic+FICadjuvant. The values of FIC index give an insight about the nature of the combination. Potentiation factor which means fold-reduction in the MIC of the antibiotic, when used in combination with the adjuvant was also determined. Potentiation factor=[Minimum inhibitory concentration (MIC) of antibiotic in absence of adjuvant]/[MIC of antibiotic in presence of adjuvant]. […] The combination efficacies of adjuvants with various antibiotics are furnished in Table 1. It should be noted that various other resistant strains of bacteria (Gram-positive and Gram-negative) can be tested with a number of other antibiotics to check the potentiation capacity of the adjuvants.

A. baumannii R674 [2] = assay: as above; settings: adjuvant alone; A. baumannii R674
Protocol: as §1, §2

P. aeruginosa R590 [3] = assay: Chequerboard combination efficacy of adjuvant with antibiotics
Protocol: (§3) All the solvents were of reagent grade, which were distilled and dried before its use. All the reagents were purchased from Sigma-Aldrich, Alfa-Aesar, S.D. Fine, Avra and Spectrochem, and were used without further purification. Analytical thin layer chromatography (TLC) was performed on E. Merck TLC plates pre-coated with silica gel 60 F254 and visualization was carried out using UV light and Iodine. Column chromatography was performed on silica gel (60-120 mesh) using different ratio of chloroform and methanol solvent system. Nuclear magnetic resonance spectra were recorded on Bruker (AV-400) 400 MHz spectrometer in deuterated solvents. Mass spectra were obtained using 6538-UHD Accurate mass Q-TOF LC-MS instrument. For optical density measurement during bacteriology experiments, Tecan Infinite Pro series M200 Microplate Reader was used. Bacterial strains, A. baumannii (R674), P. aeruginosa (R590), E. coli (R3336) and K. pneumoniae (R3934) were used for the studies.
as §1, §2

A. baumannii R674 [4] = assay: as above
Protocol: as §3, §1, §2

[5] = antibiotic Rifampicin, P. aeruginosa R590
[6] = antibiotic Tetracycline, P. aeruginosa R590

| Structure (SMILES) | HC50 (human RBCs) | MIC against clinical isolates of bacteria (P. aeruginosa R590 [1]) | MIC against clinical isolates of bacteria (A. baumannii R674 [2]) | FICI (P. aeruginosa R590 [3]; [5]) | MIC of antibiotic in presence of adjuvant (P. aeruginosa R590 [3]; [5]) | Potentiation factor (P. aeruginosa R590 [3]; [5]) | MIC of antibiotic in presence of adjuvant (P. aeruginosa R590 [3]; [6]) | Potentiation factor (P. aeruginosa R590 [3]; [6]) | FICI (A. baumannii R674 [4]; antibiotic Rifampicin) | MIC of antibiotic in presence of adjuvant (A. baumannii R674 [4]; antibiotic Rifampicin) | Potentiation factor (A. baumannii R674 [4]; antibiotic Rifampicin) | Potentiation factor (A. baumannii R674 [4]; antibiotic Tetracycline) | FICI (P. aeruginosa R590 [3]; [6]) | FICI (A. baumannii R674 [4]; antibiotic Tetracycline) | MIC of antibiotic in presence of adjuvant (A. baumannii R674 [4]; antibiotic Tetracycline) | FICI (P. aeruginosa R590 [3]) | MIC of antibiotic in presence of adjuvant (P. aeruginosa R590 [3]) |
| --- | --- | --- | --- | --- | --- | --- | --- | --- | --- | --- | --- | --- | --- | --- | --- | --- | --- |
| CC(C)(C)OC(=O)NC(Cc1c[nH]c2ccccc12)C(=O)N(CCCN)CCCN.O=C(O)C(F)(F)F.O=C(O)C(F)(F)F.O=C(O)C(F)(F)F (stereo not shown) [Compound 5, N,N-bis((3-amino)propyl) 2′-(Boc-amino), 3′-indolo propanamide tris(trifluoroacetate)] | >1024 µg/mL | >512 µg/mL | >512 µg/mL | <0.3125 | 8 µg/mL | 16 | >64 µg/mL | <4 | <0.375 | 8 µg/mL | 8 | <2 |  |  |  |  |  |
| NCCCCCCN(CCCCCCN)C(=O)CC(c1ccccc1)c1ccccc1.O=C(O)C(F)(F)F.O=C(O)C(F)(F)F [Compound 11, N,N-bis-[(6-amino)hexyl] 3,3-diphenyl propanamide bistrifluoroacetate] | >1024 µg/mL | 256 µg/mL | 128 µg/mL | 0.07 | 1 µg/mL |  | 32 µg/mL | 8 | 0.1328 | 0.5 µg/mL | 128 | 2 | 0.375 | 1 | 64 µg/mL |  |  |
| NCCCN(CCCN)C(=O)Cc1cccc2ccccc12.O=C(O)C(F)(F)F.O=C(O)C(F)(F)F [Compound 2, N,N-bis((3-amino)propyl)naphthyl ethanamide bis(trifluoroacetate)] | >1024 µg/mL | >512 µg/mL | >512 µg/mL | <0.375 | 16 µg/mL | 8 | 64 µg/mL | 4 | <0.375 | 8 µg/mL | 8 | 2 | <0.5 | <0.625 | 64 µg/mL |  |  |
| NCCCCCCN(CCCCCCN)C(=O)Cc1cccc2ccccc12 [Compound 10, N,N-bis-[(6-amino)hexyl] naphthyl ethanamide bistrifluoroacetate] | >1024 µg/mL | >512 µg/mL | >512 µg/mL | <0.133 | 1 µg/mL | 128 | 32 µg/mL | 8 | <0.14 | 1 µg/mL | 64 | 8 | <0.375 | <0.375 | 16 µg/mL |  |  |
| NCCCN(CCCN)C(=O)c1ccc(-c2ccccc2)cc1.O=C(O)C(F)(F)F.O=C(O)C(F)(F)F [Compound 3] | >1024 µg/mL | >512 µg/mL | >512 µg/mL |  |  | 4 |  | <4 | <0.5 | 16 µg/mL | 4 | <2 |  |  | >64 µg/mL | <0.5 | 32 µg/mL and >64 µg/mL |
| NCCCN(CCCN)C(=O)Cc1ccccc1.O=C(O)C(F)(F)F.O=C(O)C(F)(F)F [Compound 1, N,N-bis((3-amino)propyl)phenyl ethanamide bis(trifluoroacetate)] | >1024 µg/mL |  | >512 µg/mL |  |  |  |  |  | <0.75 | 32 µg/mL | 2 | 2 |  | <0.5 | 64 µg/mL |  |  |
| NCCCN(CCCN)CC(=O)NC1C2CC3CC(C2)CC1C3.O=C(O)C(F)(F)F.O=C(O)C(F)(F)F.O=C(O)C(F)(F)F (stereo not shown) [Compound 6, N-(Adamantan-2-yl)-2-[N′,N′-{bis-(3-amino)propyl}amino] ethanamide tris(trifluoroacetate)] | >1024 µg/mL | 512 µg/mL | 512 µg/mL | <0.06 | <0.25 µg/mL | >512 | >64 µg/mL | <4 | <0.06 | <0.25 µg/mL | >256 | <2 |  |  | >64 µg/mL |  |  |
| NCCCCCCN(CCCCCCN)CC(=O)NC1C2CC3CC(C2)CC1C3.O=C(O)C(F)(F)F.O=C(O)C(F)(F)F.O=C(O)C(F)(F)F (stereo not shown) [Compound 12, N-(adamantan-2-yl)-2-[N′,N′-{bis-(6-amino)hexyl}amino] ethanamide tristrifluoroacetate] | >1024 µg/mL | 64 µg/mL | 64 µg/mL | 0.251 | 0.125 µg/mL | 1024 | 64 µg/mL | 4 | <0.252 | <0.125 µg/mL | >512 | 8 | 0.75 | 0.625 | 16 µg/mL |  |  |
| NCCCC[C@H](N)C(=O)NCCCN(CCCNC(=O)[C@@H](N)CCCCN)C(=O)CC(c1ccccc1)c1ccccc1 [Compound 8, N,N-bis-[(6-(^LLys)amido)propyl] 3,3-diphenyl propanamide tetrakis(trifluoroacetate)] | >1024 µg/mL | >512 µg/mL | >512 µg/mL | <0.14 | 2 µg/mL | 64 | 64 µg/mL | 4 | <0.19 | 4 µg/mL | 16 | <2 | <0.375 |  | >64 µg/mL |  |  |
